Laboratory results: patent US5985302A, “Method for deactivating a contaminant” (priority 1998, dated 1999)
Like-named read-outs stand apart in the source and are kept apart here.

How the values were obtained:
[1] = system: Salmonella Typhimurium TA 98 strain; assay: Mutagenic activity (revertant colonies) of DNA intercalators treated with calcium hypochlorite; assay type: cell-based; conditions: for No. colonies of revertant organisms: drug 10 ng/ml
Description: Solutions of DNA intercalators (doxorubicin, daunorubicin and mitoxantrone)in concentrations of 10 ng/ml D5W were applied in 5 ml quantities to separate petri dishes. Two different concentrations of calcium hypochlorite, 40 g/l and 423 g/l, were applied in 1 ml. volumes separately to the anticancer drug solutions in each petri dish for a period of one minute. After thorough mixing and neutralization of the pH to 7.4 using HCl, 1 ml of each petri dish solution was applied to 35 mm petri dishes containing cultures of Salmonella Typhimurium TA 98 strain. The petri dishes containing bacteria plus overlaid mixtures of calcium hypochlorite/anticancer drug and control plates with bacteria alone were then incubated at 37° C. for 24 hours.

[2] = assay type: physicochemical; conditions: for Concentration by fluorescence (chromophore recovery): 10 ng on column
Description: Treatment of the drugs with calcium hypochlorite was carried out as described in Example 1. One ml aliquots of doxorubicin, daunorubicin and mitoxantrone, separately, were taken from the petri dishes after calcium hypochlorite exposure at two different concentrations for a period of one minute. Ten (10) ng of each of the anticancer drug (based on the final concentration resulting from the addition of calcium hypochlorite to the separate petri dishes containing each anticancer agent) was added to a high performance liquid chromatography column and standard HPLC assays were carried out. A reverse phase C-18 bonded phase HPLC procedure was used. The mobile phase consisted of 30:70 CH3 CN:ammonium acetate at a flow rate of 2 ml/min., using a Varian model 5020 HPLC unit. The anticancer drugs were detected using excitation at 480 nm and emission at 550 nm with a Schoeffel model FS 970 fluoroescence detector.

[3] = Deactivation and decolorization of anticancer drugs by hypochlorite; conditions: calcium or sodium hypochlorite
Excerpt: In accordance with the invention, HIV infected blood, or any of a number of active anticancer drugs, can be inactivated by applying thereto an aqueous solution containing 4-40% by weight of calcium or sodium hypochlorite. HIV infected blood, as well as any anticancer agent which can undergo oxidative or alkaline degradation can be deactivated in accordance with the method of the invention. Among the anticancer agents which can be effectively deactivated are the following:
In addition to chemically deactivating the anti-cancer drugs, the method of the invention is also effective to decolorize those, e.g., the anthracyclines, doxorubicin and daunorubicin, which are naturally red in color, and the alkylating agent mitomycin C, which is naturally purple in color, which stain fabrics which they contact. The method of the invention renders the naturally colored anticancer drugs colorless, thus preventing permanent damage to clothes or other materials which come in contact with the drugs.
It has also been determined that HIV infected blood and most anticancer drugs can be deactivated by application of a solution of calcium or sodium hypochlorite in water at a concentration of 4% by weight.

[4] = system: HIV-infected CD4+ human cell line (H9/IIIB); assay: HIV inactivation by dilute calcium hypochlorite; assay type: cell-based, HIV; human cells
Description: The ability of dilute calcium hypochlorite to inactivate HIV was tested against an HIV-infected CD4+ human cell line (H9/IIIB).
H9/IIIB cells (10^6 cells/ml of complete culture medium, RPMI in 10% fetal calf serum [FCS]) were exposed to an aqueous solution containing 4% by weight of calcium hypochlorite for 15 minutes; the volumetric ratio of culture medium to calcium hypochlorite solution was 1:1, or a 50% dilution of a 4% dilute calcium hypochlorite solution in culture medium containing 10% serum. The cells were subsequently washed three times with 10% FCS RPMI and plated in fresh medium and allowed to incubate at 37° C. for three days, to allow any residual live virus and/or virus-infected cells to develop after the brief exposure to the dilute calcium hypochlorite solution. The cells were again pelleted and exposed to lytic CD4+ human cell line (MOT) as a target for any viable virus. The target MOT cells will lyse when infected with HIV. These cells were then allowed to incubate an additional four days. Next, the cells were incubated with human anti-HIV antibody (prepared in accordance the procedures described in Lake DA, Sugano T, Matsumoto Y, et al: "A Hybridoma Producing Monoclonal Antibody Specific for Glycoprotein 120 kDa of Human Immunodeficiency Virus (HIV-1), Life Sciences 45:iii-x, 1989.) for one hour, and then washed and incubated with fluorescent labeled goat anti-human IgG for one hour. The method for HIV detection by formaldehyde fixation and flow cytometry was in accordance with the method described in Lifson JD, Sasaki DT, Engleman EG: "Utility of Formaldehyde Fixation for Flow Cytometry and Inactivation of the AIDS Associated Retrovirus", J Immunological Methods 86:143-149, 1986.
As a positive control, the above procedure was followed with HIV-infected H9/IIIB cells exposed only to culture medium rather than to culture medium and calcium hypochlorite. As a negative control, the above procedure was followed with uninfected H9 cells exposed to an aqueous solution containing 4% by weight of calcium hypochlorite.

[5] = Towlette swabs for work surfaces contaminated by doxorubicin; conditions: 5% impregnated towlette; stainless steel surface
Excerpt: The Experimental Materials used are as described above in Example 8. A first fresh, dry test swab or towlette is impregnated with a 5.25% by weight aqueous solution of sodium hypochlorite by applying 5 (five) ml. of the sodium hypochlorite solution to the test swab. A second fresh, dry test swab or towlette is impregnated with a 5% by weight aqueous solution of sodium thiosulfate by applying 5 (five) ml. of the sodium thiosulfate solution to the test swab.
Doxorubicin is placed on a stainless steel work surface, which should cause a red stain to appear.
The sodium thiosulfate impregnated towlette is then wiped, or swabbed, over the work surface containing the chemically inactivated doxorubicin spill.

[6] = system: HIV infected cells (H9/IIIB); assay: Towlette swabs for work surfaces contaminated by HIV infected cells; parameters: species or system HIV; human cells; conditions: 5% impregnated towlette; stainless steel surface
Excerpt: Test Swabs: 17×23 cm nylon-reinforced 4 ply, #34770, each weighing approximately 2.6 gram Terri® Wipers, manufactured by Kimberly Clark, Neenah, Wis.
Bleach: 4% by weight aqueous solution of calcium hypochlorite.
Sodium thiosulfate: 5% by weight aqueous solution, supplied by Tarijian Labs, Inc., Queens Village, N.Y.
HIV infected Cells: H9/IIIB cells (10^6 cells/ml of complete culture medium, RPI in 10% fetal calf serum [FCS]), as described above in Example 6.
A first fresh, dry test swab or towlette is impregnated with a 4.0% by weight aqueous solution of calcium hypochlorite by applying 5 (five) ml. of the calcium hypochlorite solution to the test swab. A second fresh, dry test swab or towlette is impregnated with a 5% by weight aqueous solution of sodium thiosulfate by applying 5 (five) ml. of the sodium thiosulfate solution to the test swab.
A small amount of the HIV infected cells are placed on a stainless steel work surface.
The sodium thiosulfate impregnated towlette is then wiped, or swabbed, over the work surface containing the inactivated virus.

[7] = calcium hypochlorite 40 g/l, one minute
[8] = calcium hypochlorite 423 g/l, one minute
[9] = no calcium hypochlorite, 37° C., 24 hours
[10] = calcium hypochlorite 0 (control)
[11] = lower concentration of calcium hypochlorite (40 g/l), one minute

Row | SMILES | No. colonies of revertant organisms [1, 7] [colonies] | No. colonies of revertant organisms [1, 8] [colonies] | No. colonies of revertant organisms [1, 9] [colonies] | Concentration by fluorescence (chromophore recovery) [2, 10] [ng] | Concentration by fluorescence (chromophore recovery) ([2]; calcium hypochlorite 40 g/l) [ng] | Concentration by fluorescence (chromophore recovery) ([2]; calcium hypochlorite 423 g/l) [ng] | chemical evidence of drug [2, 11] | also measured
1 | COc1cccc2c1C(=O)c1c(O)c3c(c(O)c1C2=O)C[C@@](O)(C(C)=O)C[C@@H]3O[C@H]1C[C@H](N)[C@H](O)[C@H](C)O1 [Daunorubicin] | 0 | 0 | 365 | 9.8 | 0 | 0 | no chemical evidence | –
2 | COc1cccc2c1C(=O)c1c(O)c3c(c(O)c1C2=O)C[C@@](O)(C(=O)CO)C[C@@H]3O[C@H]1C[C@H](N)[C@H](O)[C@H](C)O1 [Doxorubicin] | 0 | 0 | 257 | 9.7 | 0 | 0 | no chemical evidence | –
3 | O=C1c2c(O)ccc(O)c2C(=O)c2c(NCCNCCO)ccc(NCCNCCO)c21 [Mitoxantrone] | 44 | 0 | 164 | 10.1 | 3.8 | 0 | – | bacterial revertant growth ([1]; lower concentration of calcium hypochlorite (40 g/l)): associated with bacterial revertant growth; degradation ([2]; lower concentration of calcium hypochlorite (40 g/l), one minute, 1 min): approximately 60%; hypochlorite concentration that may be required for substantially complete deactivation [3]: up to 40 % by weight
4 | [Ca+2].[O-]Cl.[O-]Cl [calcium hypochlorite] | – | – | – | – | – | – | – | No. colonies of revertant organisms, control without drug ([1]; calcium hypochlorite 40 g/l): 0 colonies; No. colonies of revertant organisms, control without drug ([1]; calcium hypochlorite 423 g/l): 0 colonies; HIV / infected cell inactivation ([4]; 4% by weight, 1:1 volumetric ratio, 15 minutes): completely inactivates; viable HIV present ([4]; after four day incubation): no viable HIV varions present; HIV antibody binding ([4]; antibody specific to the 120 kDa viral glycoprotein): no HIV antibody binding is detectable; signs of HIV infection under fluorescent microscope ([4]; fluorescent anti-HIV antibody): no signs of HIV infection; lysis of cells ([4]; non-infected and HIV infected cells, n=4 each): completely lysed
5 | O=S([O-])([O-])=S.[Na+].[Na+] [sodium thiosulfate] | – | – | – | – | – | – | – | neutralization of residual sodium hypochlorite [5]: should neutralize any residual sodium hypochlorite; neutralization of residual calcium hypochlorite [6]: should neutralize any residual calcium hypochlorite
